The term EC50 denotes the concentration giving half of the maximal effect. Low values mean an effect from little substance, high ones a need for much substance.

For this assay, the system named is Aβ42. The experiment in a line: In vitro cell screening assay in H4 cells expressing human APP751: Aβ42 by sandwich ELISA. The format is cell-based. Particulars: compounds 0.003-10 μM, incubated overnight (16-18 h), sandwich ELISA of supernatant. In short, it runs like this:
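H4 neuroglioma cells stably expressing wild-type human APP751, switched to Pro293 medium and treated with compounds (0.003-10 μM, 0.33% DMSO) for 16-18 h at 37 °C. Supernatant Aβ42 quantified by sandwich ELISA (C-terminal capture, 4G8-HRP detection, A450); EC50 by sigmoidal fit normalized to DMSO and DAPT controls.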
Background: An ELISA detects its analyte on a solid surface through an enzyme-linked reagent.

The compound `COc1nc(C2=NOCC(c3cc4cccc(C)c4o3)N2)ccc1-n1cnc(C)c1` (single isomer, unassigned) [Example 7B, 3-(6-Methoxy-5-(4-methyl-1H-imidazol-1-yl)pyridin-2-yl)-5-(7-methylbenzofuran-2-yl)-5,6-dihydro-4H-1,2,4-oxadiazine] returned an EC50 of 23.3 nM. With `COc1nc(C2=NOCC(C3CC3)N2)ccc1-n1cnc(C)c1` (single isomer, unassigned) [Example 134A, 5-cyclopropyl-3-(6-methoxy-5-(4-methyl-1H-imidazol-1-yl)pyridin-2-yl)-5,6-dihydro-4H-1,2,4-oxadiazine], the EC50 was > 3000 nM. In turn, `COc1nc(C2=NOCC(c3ccccc3)N2)ccc1-n1cnc(C)c1` (single isomer, unassigned) [Example 36B, 3-(6-methoxy-5-(4-methyl-1H-imidazol-1-yl)pyridin-2-yl)-5-phenyl-5,6-dihydro-4H-1,2,4-oxadiazine] gave a concentration giving a half-maximal response (EC50) of 97 nM. In other words, the double-digit nanomolar range. Turning to `COc1nc(C2=NOCC(c3cc4cccc(C)c4o3)N2C)ccc1-n1cnc(C)c1` (single isomer, unassigned; (+)) [Example 23, (+)-3-(6-Methoxy-5-(4-methyl-1H-imidazol-1-yl)pyridin-2-yl)-4-methyl-5-(7-methylbenzofuran-2-yl)-5,6-dihydro-4H-1,2,4-oxadiazine], the concentration giving a half-maximal response (EC50) (Homo sapiens) was determined as 61.9 nM. In turn, `CCC1CON=C(c2ccc(-n3cnc(C)c3)c(OC)n2)N1` (single isomer, unassigned) [Example 133B, 5-ethyl-3-(6-methoxy-5-(4-methyl-1H-imidazol-1-yl)pyridin-2-yl)-5,6-dihydro-4H-1,2,4-oxadiazine] showed an EC50 of 728 nM. Still for that read-out and setting: as for `COc1nc(C2=NOCC(c3cccc(OC(F)(F)F)c3)N2)ccc1-n1cnc(C)c1` (single isomer, unassigned; (-)) [Example 242A, (−)-3-(6-methoxy-5-(4-methyl-1H-imidazol-1-yl)pyridin-2-yl)-5-(3-(trifluoromethoxy)phenyl)-5,6-dihydro-4H-1,2,4-oxadiazine], the figure is 709 nM; as for `COc1nc(C2=NOCC(c3cn(C)c4ccc(F)c(F)c34)N2)ccc1-n1cnc(C)c1` (single isomer, unassigned; (+)) [Example 220B, (+)-5-(4,5-difluoro-1-methyl-1H-indol-3-yl)-3-(6-methoxy-5-(4-methyl-1H-imidazol-1-yl)pyridin-2-yl)-5,6-dihydro-4H-1,2,4-oxadiazine], 5.5 nM; as for `COc1nc(C2=NOCC(C3CCCC3)N2)ccc1-n1cnc(C)c1` (single isomer, unassigned; (-)) [Example 171B, (−)-5-cyclopentyl-3-(6-methoxy-5-(4-methyl-1H-imidazol-1-yl)pyridin-2-yl)-5,6-dihydro-4H-1,2,4-oxadiazine], 107 nM.

For `COc1nc(C2=NOCC(C(C)(C)C)N2)ccc1-n1cnc(C)c1` (single isomer, unassigned; (-)) [Example 147A, (−)-5-(tert-butyl)-3-(6-methoxy-5-(4-methyl-1H-imidazol-1-yl)pyridin-2-yl)-5,6-dihydro-4H-1,2,4-oxadiazine], the concentration for a half-maximal effect (EC50) came to 130 nM. For `COc1nc(C2=NOCC(c3ccc4c(c3)CCC4)N2)ccc1-n1cnc(C)c1` (single isomer, unassigned; (+)) [Example 248B, (+)-5-(2,3-dihydro-1H-inden-5-yl)-3-(6-methoxy-5-(4-methyl-1H-imidazol-1-yl)pyridin-2-yl)-5,6-dihydro-4H-1,2,4-oxadiazine], the EC50 amounted to 10.1 nM. Still for that read-out and setting: as for `COc1nc(C2=NOCC(CC3CC3)N2)ccc1-n1cnc(C)c1` (single isomer, unassigned) [Example 159A, 5-(cyclopropylmethyl)-3-(6-methoxy-5-(4-methyl-1H-imidazol-1-yl)pyridin-2-yl)-5,6-dihydro-4H-1,2,4-oxadiazine], the figure is > 3000 nM; as for `COc1nc(C2=NOCC(c3cn(C)c4cc(F)c(F)cc34)N2)ccc1-n1cnc(C)c1` (single isomer, unassigned; (+)) [Example 223B, (+)-5-(5,6-difluoro-1-methyl-1H-indol-3-yl)-3-(6-methoxy-5-(4-methyl-1H-imidazol-1-yl)pyridin-2-yl)-5,6-dihydro-4H-1,2,4-oxadiazine], 6.2 nM; as for `COc1nc(C2=NOCC(c3coc4ccccc34)N2)ccc1-n1cnc(C)c1` (single isomer, unassigned) [Example 38A, 5-(benzofuran-3-yl)-3-(6-methoxy-5-(4-methyl-1H-imidazol-1-yl)pyridin-2-yl)-5,6-dihydro-4H-1,2,4-oxadiazine], > 3000 nM. The compound `COc1nc(C2=NOC[C@H](c3cc4cc(C)ccc4o3)N2)ccc1-n1cnc(C)c1` [Example 10, (R)-3-(6-Methoxy-5-(4-methyl-1H-imidazol-1-yl)pyridin-2-yl)-5-(5-methylbenzofuran-2-yl)-5,6-dihydro-4H-1,2,4-oxadiazine] gave an EC50 (Homo sapiens) of 16 nM. Take `COc1nc(C2=NOCC(c3oc4ccccc4c3C)N2)ccc1-n1cnc(C)c1` (single isomer, unassigned; (-)) [Example 16A, (−)-3-(6-methoxy-5-(4-methyl-1H-imidazol-1-yl)pyridin-2-yl)-5-(3-methylbenzofuran-2-yl)-5,6-dihydro-4H-1,2,4-oxadiazine]: a half-maximal response (EC50) required 508 nM. As to `COc1cc(Cl)c2c(C3CON=C(c4ccc(-n5cnc(C)c5)c(OC)n4)N3)cn(C)c2c1` (single isomer, unassigned; (+)) [Example 261A, (+)-5-(4-chloro-6-methoxy-1-methyl-1H-indol-3-yl)-3-(6-methoxy-5-(4-methyl-1H-imidazol-1-yl)pyridin-2-yl)-5,6-dihydro-4H-1,2,4-oxadiazine], a half-maximal response (Homo sapiens) (EC50) required 38.7 nM.

`COc1nc(C2=NOCC(c3cn(C)c4cc(F)cc(F)c34)N2)ccc1-n1cnc(C)c1` (single isomer, unassigned; (+)) [Example 226A, (+)-5-(4,6-difluoro-1-methyl-1H-indol-3-yl)-3-(6-methoxy-5-(4-methyl-1H-imidazol-1-yl)pyridin-2-yl)-5,6-dihydro-4H-1,2,4-oxadiazine] showed a concentration for a half-maximal effect (EC50) of 9.4 nM.

`COc1ccc2c(C3CON=C(c4ccc(-n5cnc(C)c5)c(OC)n4)N3)cn(C)c2c1` (single isomer, unassigned; (-)) [Example 258A, (−)-5-(6-methoxy-1-methyl-1H-indol-3-yl)-3-(6-methoxy-5-(4-methyl-1H-imidazol-1-yl)pyridin-2-yl)-5,6-dihydro-4H-1,2,4-oxadiazine] yielded an EC50 of 154 nM.

The compound `COc1nc(C2=NOCC(c3cccc(C(F)(F)F)c3)N2C)ccc1-n1cnc(C)c1` (centres unmarked) [Example 30A, 3-(6-methoxy-5-(4-methyl-1H-imidazol-1-yl)pyridin-2-yl)-4-methyl-5-(3-(trifluoromethyl)phenyl)-5,6-dihydro-4H-1,2,4-oxadiazine] came in with a concentration for a half-maximal effect (EC50) of 55.7 nM. On the same count and under the same terms, next, `COc1nc(C2=NOCC(c3cn(C)c4cccc(OC)c34)N2)ccc1-n1cnc(C)c1` (single isomer, unassigned; (-)) [Example 252A, (−)-5-(4-methoxy-1-methyl-1H-indol-3-yl)-3-(6-methoxy-5-(4-methyl-1H-imidazol-1-yl)pyridin-2-yl)-5,6-dihydro-4H-1,2,4-oxadiazine]: 158 nM.

(Values after patent US9802927B2, “Oxadiazine compounds and methods of use thereof” (Denali Therapeutics, Inc., priority 2015, dated 2017).)
